# Measurements as given in patent US5302621A, “Azasteroid compounds for the treatment of prostatic hypertrophy, their preparation and use” (Sankyo Company, Limited, priority 1990, dated 1994).
# Tested on: rat 5α-reductase
# Test: Assay of Rat 5α-reductase Inhibition
# Assay type: biochemical, rat (Sprague-Dawley)
# Conditions: 10^-8 M test compound; rat prostate 5α-reductase, 1 μM [14C] testosterone, pH 6.5, 37° C., 15 to 30 minutes
# Description: The prostatic lobes of a mature male rat (body weight 350-450 g, Sprague-Dawley strain) were cut into small pieces with scissors. About three parts by weight of a buffer solution [20 mM potassium phosphate buffer solution (ph 7.4) containing 0.33M sucrose, 1 mM dithiothreitol, 50 μM nicotinamide adenine dinucleotide phosphate-reduced form (NADPH) and 0.001% PMSF (phenylmethyl sulfonyl fluoride)] were added to one part by weight of the tissue pieces, and the mixture was homogenized first by means of a Polytron (trade mark, KINEMATICA GmbH) homogenizer, and then by means of a Teflon (trade mark) glass homogenizer. The prostatic tissue suspension thus homogenized was then centrifuged (140000×g, 60 minutes) to separate the precipitate.
# About three parts by weight of the buffer solution described above were added to one part of the precipitate to suspend it, and the suspension was centrifuged again (140000×g, 60 minutes) to wash it and separate a precipitate, which was regarded as a rat 5α-reductase preparation. Sufficient of the buffer solution described above was added to this precipitate for the protein content of the solution to become between 20 and 40 mg/ml. The solution was frozen and stored at -80° C. The protein content was determined by a Bio-Rad protein assay in which bovine γ-globulin (Cohn Fraction II, Sigma) was used as the protein standard.
# 5 μl of a dimethyl sulfoxide or ethanol solution in which a test compound to be tested was dissolved were added to 0.5 ml of a 40 mM potassium phosphate buffer solution (pH 6.5) containing rat 5α-reductase (protein content, 1 mg), 1 μM [^14 C] testosterone, 1 mM dithiothreitol and 500 μM NADPH (final concentration 10^-8 M of the test compound), and incubated for 15 to 30 minutes at 37° C. As a control, only the solvent was added to one sample. 2 ml of ethyl acetate containing 10 μg each of testosterone, 5α-dihydrotestosterone and androstenedione were then added to stop the reaction. The mixture was centrifuged (1400×g, 5 minutes). The ethyl acetate layer was separated and transferred to another test tube, where it was evaporated to dryness whilst spraying it with nitrogen gas. The steroids were dissolved in 40 μl of ethyl acetate. The solution was spotted on a thin layer chromatographic plate (LK5DF silica plate, Whatman), and developed with a mixture of ethyl acetate with cyclohexane (1:1 by volume) twice at room temperature. The steroid fraction was identified by color development by ultraviolet radiation or by heating with a […]/10% sulfuric acid solution. The radioactivity on the thin layer chromatographic plate was measured by means of a bio-image analyzer (Fuji Film Co. Ltd.). The enzyme activity was given by the amount [conversion rate (%)] of [^14 C] 5α-dihydro-testosterone which was converted from the [^14 C] testosterone initially added. The rat 5α-reductase inhibiting activity of a test sample was calculated from the following equation: [formula]
row,Rat 5α-reductase inhibiting activity: Inhibiting activity (%),Compound
1,30.0,"CC(C)(C)NC(=O)C1CCC2C3CCC4NC(=O)C=CC4(C)C3CCC12C (centres unmarked) [Compound A2, reference compound]"
2,89.2,"C[C@]12CCC(=O)N[C@@H]1CC[C@@H]1[C@@H]2CC[C@]2(C)[C@@H](C(=O)NC(c3ccccc3)c3ccccc3)CC[C@@H]12 [Example No. 1, N-(Diphenylmethyl)-3-oxo-4-aza-5α-androstane-17β-carboxamide]"
3,89.1,"C[C@]12CCC(=O)N[C@@H]1CC[C@@H]1[C@@H]2CC[C@]2(C)[C@@H](C(=O)NC(Cc3ccccc3)c3ccccc3)CC[C@@H]12 (stereo partly drawn) [Example No. 3, N-(1,2-Diphenylethyl)-3-oxo-4-aza-5α-androstane-17β-carboxamide]"
4,74.1,"C[C@]12CCC(=O)N[C@@H]1CC[C@@H]1[C@@H]2CC[C@]2(C)[C@@H](C(=O)N(Cc3ccccc3)Cc3ccccc3)CC[C@@H]12 [Example No. 4, N,N-Dibenzyl-3-oxo-4-aza-5α-androstane-17β-carboxamide]"
5,74.6,"C[C@]12C=CC(=O)N[C@@H]1CC[C@@H]1[C@@H]2CC[C@]2(C)[C@@H](C(=O)NC(Cc3ccccc3)c3ccccc3)CC[C@@H]12 (stereo partly drawn) [Example No. 8, N-(1,2-Diphenylethyl)-3-oxo-4-aza-5α-androst-1-ene-17β-carboxamide]"
6,78.4,"C[C@]12CC[C@H]3[C@@H](CC=C4NC(=O)CC[C@@]43C)[C@@H]1CC[C@@H]2C(=O)NC(Cc1ccccc1)c1ccccc1 (stereo partly drawn) [Example No. 12, N-(1,2-Diphenylethyl)-3-oxo-4-azaandrost-5-ene-17β-carboxamide]"
7,86.7,"CN1C(=O)CC[C@]2(C)[C@H]3CC[C@]4(C)[C@@H](C(=O)NC(c5ccccc5)c5ccccc5)CC[C@H]4[C@@H]3CC[C@@H]12 [Example No. 20, N-(Diphenylmethyl)-4-methyl-3-oxo-4-aza-5α-androstane-17β-carboxamide]"
8,87.3,"CN1C(=O)CC[C@]2(C)[C@H]3CC[C@]4(C)[C@@H](C(=O)NC(C)(c5ccccc5)c5ccccc5)CC[C@H]4[C@@H]3CC[C@@H]12 [Example No. 26, N-(1,1-Diphenylethyl)-4-methyl-3-oxo-4-aza-5α-androstane-17β-carboxamide]"
9,82.2,"CC(C)(NC(=O)[C@H]1CC[C@H]2[C@@H]3CC[C@H]4NC(=O)CC[C@]4(C)[C@H]3CC[C@]12C)c1ccccc1 [Example No. 37, N-(1-Methyl-1-phenylethyl)-3-oxo-4-aza-5α-androstane-17β-carboxamide]"
10,88.6,"CN1C(=O)CC[C@]2(C)[C@H]3CC[C@]4(C)[C@@H](C(=O)NC(C)(C)c5ccccc5)CC[C@H]4[C@@H]3CC[C@@H]12 [Example No. 40, N-(1-Methyl-1-phenylethyl)-4-methyl-3-oxo-4-aza-5α-androstane-17β-carboxamide]"
11,72.3,"CN1C(=O)CC[C@@]2(C)C1=CC[C@H]1[C@@H]3CC[C@H](C(=O)NC(C)(C)c4ccccc4)[C@@]3(C)CC[C@@H]12 [Example No. 42, N-(1-Methyl-1-phenylethyl)-4-methyl-3-oxo-4-aza-androst-5-ene-17β-carboxamide]"
12,73.2,"COc1ccc(C(C)(C)NC(=O)[C@H]2CC[C@H]3[C@@H]4CC[C@H]5NC(=O)C=C[C@]5(C)[C@H]4CC[C@]23C)cc1 [Example No. 44, N-[1-(4-Methoxyphenyl)-1-methylethyl]-3-oxo-4-aza-5α-androst-1-ene-17β-carboxamide]"
13,90.1,"Cc1ccc(C[C@H](NC(=O)[C@H]2CC[C@H]3[C@@H]4CC[C@H]5NC(=O)CC[C@]5(C)[C@H]4CC[C@]23C)c2ccccc2)cc1 [Example No. 62, N-[(S)-2-(4-Methylphenyl)-1-phenylethyl]-3-oxo-4-aza-5α-androstane-17β-carboxamide]"
14,80.0,"C[C@]12C=CC(=O)N[C@@H]1CC[C@@H]1[C@@H]2CC[C@]2(C)[C@@H](C(=O)NN(c3ccccc3)c3ccccc3)CC[C@@H]12 [Example No. 65, N,N-Diphenyl-3-oxo-4-aza-5α-androst-1-ene-17β-carbohydrazide]"
15,80.5,"C[C@]12C=CC(=O)N[C@@H]1CC[C@@H]1[C@@H]2CC[C@]2(C)[C@@H](C(=O)N[C@H](c3ccccc3)[C@@H](O)c3ccccc3)CC[C@@H]12 [Example No. 73, N-[(1R,2S)-2-Hydroxy-1,2-diphenylethyl]-3-oxo-4-aza-5α-androst-1-ene-17β-carboxamide]"

# Tested on: testosterone 5α-reductase
# Test: not given
# Conditions: background, U.S. Pat. No. 4,179,453 and 4,760,071; cited from earlier work
row,Compound,"5α-reductase inhibitory activity of prior-art compounds, in words"
1,CCN(CC)C(=O)C1CCC2C3CCC4NC(=O)C=CC4(C)C3CCC12C (centres unmarked) [Compound A1],quite a potent activity
2,"CC(C)(C)NC(=O)C1CCC2C3CCC4NC(=O)C=CC4(C)C3CCC12C (centres unmarked) [Compound A2, reference compound]",quite a potent activity
